According to ChEMBL document CHEMBL1201862, “PubChem BioAssay data set” (2004):
Calls of active or inactive are those of the source.

Legend:
[1] = biological target: T1, RNA-binding protein pos-1 (Caenorhabditis elegans, UniProt G5EF15); assay: inhibitors of POS-1/mex-3 RNA binding, dose response, biochemical, fluorescence polarization (AID 1964);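 also: purified POS-1 fused to maltose binding protein made in E. coli; potency of compounds blocking POS-1 binding to fluorescent RNA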
T1 sequence (G5EF15 whole entry): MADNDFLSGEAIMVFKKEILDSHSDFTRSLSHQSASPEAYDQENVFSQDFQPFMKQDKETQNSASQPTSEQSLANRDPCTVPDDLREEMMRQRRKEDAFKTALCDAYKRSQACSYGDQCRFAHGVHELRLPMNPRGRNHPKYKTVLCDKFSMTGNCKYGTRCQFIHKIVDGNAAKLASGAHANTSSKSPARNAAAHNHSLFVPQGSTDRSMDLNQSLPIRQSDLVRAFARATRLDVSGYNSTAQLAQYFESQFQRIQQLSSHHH

[2] = biological target: T2, Zinc finger protein mex-5 (Caenorhabditis elegans, UniProt Q9XUB2); assay: MEX-5/TCR-2 RNA interaction inhibitors, dose response, biochemical, C. elegans, fluorescence polarization (AID 1960)
T2 sequence (Q9XUB2 whole entry): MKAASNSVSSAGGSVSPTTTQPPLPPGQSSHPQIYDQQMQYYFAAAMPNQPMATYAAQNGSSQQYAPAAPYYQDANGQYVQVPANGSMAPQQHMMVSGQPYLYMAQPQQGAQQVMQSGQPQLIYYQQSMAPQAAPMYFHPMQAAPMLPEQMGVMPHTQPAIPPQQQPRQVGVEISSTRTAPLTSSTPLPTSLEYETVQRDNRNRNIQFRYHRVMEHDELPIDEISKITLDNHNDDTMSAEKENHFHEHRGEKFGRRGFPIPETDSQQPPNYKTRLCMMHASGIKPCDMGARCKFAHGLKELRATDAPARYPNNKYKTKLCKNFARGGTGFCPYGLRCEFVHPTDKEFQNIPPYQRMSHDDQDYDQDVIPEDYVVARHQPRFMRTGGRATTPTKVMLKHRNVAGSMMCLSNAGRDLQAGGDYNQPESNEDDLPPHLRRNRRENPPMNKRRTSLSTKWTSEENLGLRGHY

[3] = biological target: Heat shock protein HSP 90-alpha (Homo sapiens, UniProt P07900); assay: Luminescence-based dose response biochemical high throughput screening assay for inhibitors of the Heat Shock Protein 90 (HSP90). [Related pubchem assays: 1831 (Summary AID.), 1846 (Confirmation screen.), 1789 (Primary screen.)]
[4] = biological target: Glyceraldehyde-3-phosphate dehydrogenase (Homo sapiens, UniProt P04406)
Glyceraldehyde-3-phosphate dehydrogenase, sequence (P04406 whole entry): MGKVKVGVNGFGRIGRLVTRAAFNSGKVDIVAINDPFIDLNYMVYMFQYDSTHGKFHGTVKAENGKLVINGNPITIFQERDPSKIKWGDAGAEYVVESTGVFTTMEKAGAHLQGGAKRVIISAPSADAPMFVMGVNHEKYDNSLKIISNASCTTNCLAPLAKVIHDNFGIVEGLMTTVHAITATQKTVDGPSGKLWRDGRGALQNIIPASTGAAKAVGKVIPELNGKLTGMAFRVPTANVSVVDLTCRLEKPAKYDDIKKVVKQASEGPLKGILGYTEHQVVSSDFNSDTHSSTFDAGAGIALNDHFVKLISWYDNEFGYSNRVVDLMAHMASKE

Bcl-2-related protein A1 [5] = biological target: T3, Bcl-2-related protein A1 (Mus musculus, UniProt Q07440); assay: Bfl-1 inhibitors blocking BH3 peptide binding, confirmation, biochemical, TR-FRET, mouse Bfl-1 (AID 621);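 also: TR-FRET binding of GST-Bfl-1 to FITC-labelled Bid peptide via terbium antibody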
T3 sequence (Q07440 whole entry): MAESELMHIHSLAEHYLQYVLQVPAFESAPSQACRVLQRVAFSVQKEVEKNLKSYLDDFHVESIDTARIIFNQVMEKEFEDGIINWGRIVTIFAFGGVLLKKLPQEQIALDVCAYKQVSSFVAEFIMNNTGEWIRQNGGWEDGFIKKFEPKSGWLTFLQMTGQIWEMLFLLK

Bcl-2-related protein A1 [6] = biological target: T3, Bcl-2-related protein A1; assay: Bfl-1 binding inhibitors, SAR follow-up, biochemical, fluorescence polarization (AID 1070)
Cytochrome P450 2C19 = Cytochrome P450 2C19 (Homo sapiens, UniProt P33261); assay: qHTS Assay for Inhibitors and Substrates of Cytochrome P450 2C19. [Related pubchem assays: 410 ]; format: ADME; conditions: read-out: Potency
Cytochrome P450 2C19, sequence (P33261 whole entry): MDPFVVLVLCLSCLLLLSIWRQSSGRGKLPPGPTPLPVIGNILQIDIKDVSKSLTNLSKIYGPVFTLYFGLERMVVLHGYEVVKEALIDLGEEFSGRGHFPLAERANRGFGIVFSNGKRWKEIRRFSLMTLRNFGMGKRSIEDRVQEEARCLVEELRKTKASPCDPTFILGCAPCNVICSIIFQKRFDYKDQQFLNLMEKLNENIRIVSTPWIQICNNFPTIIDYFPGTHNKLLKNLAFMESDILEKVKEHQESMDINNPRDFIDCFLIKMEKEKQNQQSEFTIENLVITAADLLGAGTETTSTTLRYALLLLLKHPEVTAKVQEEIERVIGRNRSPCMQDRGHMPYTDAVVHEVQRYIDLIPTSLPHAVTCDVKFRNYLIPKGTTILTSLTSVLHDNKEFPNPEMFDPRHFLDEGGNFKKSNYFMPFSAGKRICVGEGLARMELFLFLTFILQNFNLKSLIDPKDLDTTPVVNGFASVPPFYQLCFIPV

[7] = biological target: Mitogen-activated protein kinase 10 (Homo sapiens, UniProt P53779); assay: Dose response biochemical screening assay for inhibitors of c-Jun N-Terminal Kinase 3 (JNK3). [Related pubchem assays: 746 ]
Mitogen-activated protein kinase 10, sequence (P53779 whole entry): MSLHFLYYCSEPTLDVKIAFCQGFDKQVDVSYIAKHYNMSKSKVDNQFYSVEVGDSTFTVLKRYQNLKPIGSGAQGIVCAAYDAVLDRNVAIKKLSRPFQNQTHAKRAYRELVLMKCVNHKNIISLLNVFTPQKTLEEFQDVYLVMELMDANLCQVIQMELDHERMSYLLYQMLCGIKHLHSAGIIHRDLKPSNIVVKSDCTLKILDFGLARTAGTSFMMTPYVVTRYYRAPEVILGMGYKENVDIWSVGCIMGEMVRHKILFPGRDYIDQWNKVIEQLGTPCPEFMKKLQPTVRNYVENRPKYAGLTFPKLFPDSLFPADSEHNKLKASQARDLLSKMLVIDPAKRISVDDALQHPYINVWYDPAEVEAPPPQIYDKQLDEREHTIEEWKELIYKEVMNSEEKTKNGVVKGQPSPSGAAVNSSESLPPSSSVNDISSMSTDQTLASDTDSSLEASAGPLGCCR

[8] = biological target: Nuclear receptor subfamily 5 group A member 2 (Homo sapiens, UniProt O00482); format: functional, cell-based;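 also: HEK293T cells transfected with LRH-1 and a StAR promoter luciferase reporter; potency for inhibitors that lower LRH-1 driven reporter light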
Nuclear receptor subfamily 5 group A member 2, sequence (O00482 whole entry): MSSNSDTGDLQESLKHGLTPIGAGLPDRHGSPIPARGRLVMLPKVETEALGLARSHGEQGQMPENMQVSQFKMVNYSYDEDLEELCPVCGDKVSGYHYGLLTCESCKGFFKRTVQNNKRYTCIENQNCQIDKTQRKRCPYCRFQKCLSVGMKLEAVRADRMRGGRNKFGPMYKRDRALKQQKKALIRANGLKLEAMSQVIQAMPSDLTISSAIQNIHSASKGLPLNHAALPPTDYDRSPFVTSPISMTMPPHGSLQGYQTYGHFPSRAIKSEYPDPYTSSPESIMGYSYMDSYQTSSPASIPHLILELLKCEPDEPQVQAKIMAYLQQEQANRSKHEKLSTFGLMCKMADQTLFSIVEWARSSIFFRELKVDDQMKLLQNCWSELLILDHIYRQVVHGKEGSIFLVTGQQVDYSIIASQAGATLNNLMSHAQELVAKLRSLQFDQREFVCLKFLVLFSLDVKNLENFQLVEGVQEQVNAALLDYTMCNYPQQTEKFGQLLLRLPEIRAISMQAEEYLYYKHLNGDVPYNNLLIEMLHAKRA

Steroidogenic factor 1 = Steroidogenic factor 1 (Homo sapiens, UniProt Q13285); assay: Counterscreen for inverse agonists of the liver receptor homolog-1 (LRH-1; NR5A2): Luminescence-based cell-based high throughput dose response assay to identify inverse agonists of the Steroidogenic Factor 1 Nuclear Receptor (SF1; NR5A1).; format: functional
Steroidogenic factor 1, sequence (Q13285 whole entry): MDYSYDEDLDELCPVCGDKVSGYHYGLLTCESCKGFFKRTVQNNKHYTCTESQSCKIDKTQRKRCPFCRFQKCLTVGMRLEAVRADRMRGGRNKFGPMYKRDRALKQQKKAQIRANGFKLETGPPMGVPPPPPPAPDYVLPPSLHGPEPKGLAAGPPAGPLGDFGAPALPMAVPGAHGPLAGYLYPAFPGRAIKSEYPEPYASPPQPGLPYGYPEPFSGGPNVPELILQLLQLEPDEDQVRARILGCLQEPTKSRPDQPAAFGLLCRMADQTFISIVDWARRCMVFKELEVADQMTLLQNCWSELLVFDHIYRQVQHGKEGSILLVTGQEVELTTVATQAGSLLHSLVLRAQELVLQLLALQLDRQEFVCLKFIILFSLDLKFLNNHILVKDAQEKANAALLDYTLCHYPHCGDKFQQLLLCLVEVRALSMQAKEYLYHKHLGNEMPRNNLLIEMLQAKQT

[9] = StAR promoter reporter inhibition counter-screen, dose response, counter-screen for LRH-1 inverse agonist project, cell-based, luminescence, luciferase reporter (AID 651969); format: functional
Caspase-3 = biological target: T4, Caspase-3 (Homo sapiens, UniProt P42574); format: functional;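 also: Dose-response selectivity test against caspase-3 for candidate inhibitors of sentrin-specific proteases (SENPs)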
T4 sequence (P42574 whole entry): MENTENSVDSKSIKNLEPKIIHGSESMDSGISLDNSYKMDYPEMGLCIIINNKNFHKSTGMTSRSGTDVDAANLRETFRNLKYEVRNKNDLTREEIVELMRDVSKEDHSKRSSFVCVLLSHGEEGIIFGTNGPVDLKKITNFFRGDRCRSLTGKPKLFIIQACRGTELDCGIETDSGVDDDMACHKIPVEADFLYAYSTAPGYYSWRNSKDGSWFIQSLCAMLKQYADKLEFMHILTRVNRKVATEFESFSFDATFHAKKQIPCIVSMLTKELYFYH

[10] = biological target: T5, Sentrin-specific protease 7 (Homo sapiens, UniProt Q9BQF6); format: functional;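 also: Luminescence-based dose-response confirmation of ultra-high-throughput screening hits, measuring inhibition of SENP7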
T5 sequence (Q9BQF6 whole entry): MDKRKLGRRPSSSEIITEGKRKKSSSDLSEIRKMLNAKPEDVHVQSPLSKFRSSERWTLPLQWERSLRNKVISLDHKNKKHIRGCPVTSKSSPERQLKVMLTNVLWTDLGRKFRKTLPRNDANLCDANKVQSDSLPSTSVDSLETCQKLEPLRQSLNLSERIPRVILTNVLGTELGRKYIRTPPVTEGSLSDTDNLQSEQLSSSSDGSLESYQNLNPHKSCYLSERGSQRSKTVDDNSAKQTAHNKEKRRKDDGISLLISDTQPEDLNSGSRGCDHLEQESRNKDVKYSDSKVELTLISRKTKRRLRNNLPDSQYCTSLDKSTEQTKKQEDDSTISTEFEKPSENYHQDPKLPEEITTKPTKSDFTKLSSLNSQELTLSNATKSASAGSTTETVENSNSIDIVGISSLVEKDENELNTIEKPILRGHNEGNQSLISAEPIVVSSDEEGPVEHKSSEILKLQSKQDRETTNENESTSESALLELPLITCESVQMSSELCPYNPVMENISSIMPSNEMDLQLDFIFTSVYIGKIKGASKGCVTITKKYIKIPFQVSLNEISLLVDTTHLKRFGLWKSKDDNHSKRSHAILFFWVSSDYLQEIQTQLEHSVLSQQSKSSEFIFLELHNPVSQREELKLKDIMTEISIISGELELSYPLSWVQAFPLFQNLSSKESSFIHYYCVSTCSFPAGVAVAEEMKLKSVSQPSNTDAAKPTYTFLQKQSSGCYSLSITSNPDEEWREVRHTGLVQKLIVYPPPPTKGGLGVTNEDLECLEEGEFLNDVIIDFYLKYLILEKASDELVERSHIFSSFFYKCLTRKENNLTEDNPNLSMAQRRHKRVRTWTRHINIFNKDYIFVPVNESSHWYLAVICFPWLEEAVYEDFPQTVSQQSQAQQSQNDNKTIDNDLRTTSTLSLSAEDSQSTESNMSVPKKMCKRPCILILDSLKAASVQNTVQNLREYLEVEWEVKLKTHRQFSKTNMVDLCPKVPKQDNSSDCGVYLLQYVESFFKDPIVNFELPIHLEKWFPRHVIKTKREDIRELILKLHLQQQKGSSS

[11] = biological target: T6, Sentrin-specific protease 6 (Homo sapiens, UniProt Q9GZR1); format: functional;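 also: Luminescence-based dose-response confirmatory assay of SENP6 inhibition, following up an ultra-high-throughput screen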
T6 sequence (Q9GZR1 whole entry): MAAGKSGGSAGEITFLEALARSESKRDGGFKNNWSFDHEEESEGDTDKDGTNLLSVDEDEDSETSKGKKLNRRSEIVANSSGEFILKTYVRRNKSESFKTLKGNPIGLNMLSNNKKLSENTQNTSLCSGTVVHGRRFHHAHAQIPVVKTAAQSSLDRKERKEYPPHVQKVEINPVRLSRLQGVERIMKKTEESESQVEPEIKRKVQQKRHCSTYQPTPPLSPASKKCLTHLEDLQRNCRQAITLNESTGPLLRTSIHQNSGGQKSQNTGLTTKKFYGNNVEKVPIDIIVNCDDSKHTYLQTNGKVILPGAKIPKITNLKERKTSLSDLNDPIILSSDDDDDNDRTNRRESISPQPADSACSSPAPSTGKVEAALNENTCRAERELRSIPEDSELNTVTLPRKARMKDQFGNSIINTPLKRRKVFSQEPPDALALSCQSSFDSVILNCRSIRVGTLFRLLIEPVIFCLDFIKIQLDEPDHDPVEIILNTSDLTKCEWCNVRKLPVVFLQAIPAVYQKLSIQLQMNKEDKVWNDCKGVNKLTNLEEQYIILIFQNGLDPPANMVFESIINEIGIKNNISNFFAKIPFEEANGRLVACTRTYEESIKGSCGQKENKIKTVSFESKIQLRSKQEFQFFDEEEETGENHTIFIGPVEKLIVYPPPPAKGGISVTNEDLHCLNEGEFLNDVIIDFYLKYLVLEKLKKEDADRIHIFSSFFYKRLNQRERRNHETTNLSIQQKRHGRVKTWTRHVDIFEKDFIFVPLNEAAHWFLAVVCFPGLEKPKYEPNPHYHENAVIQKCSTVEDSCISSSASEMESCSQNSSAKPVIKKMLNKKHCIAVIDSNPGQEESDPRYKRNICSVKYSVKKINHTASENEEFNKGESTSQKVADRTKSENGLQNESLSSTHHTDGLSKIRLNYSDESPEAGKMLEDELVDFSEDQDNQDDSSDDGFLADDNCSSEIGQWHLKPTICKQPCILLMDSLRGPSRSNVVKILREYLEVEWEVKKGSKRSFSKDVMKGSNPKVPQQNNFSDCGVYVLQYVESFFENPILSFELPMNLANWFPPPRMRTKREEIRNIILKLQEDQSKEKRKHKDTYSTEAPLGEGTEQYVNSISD

[12] = biological target: T7, Sentrin-specific protease 8 (Homo sapiens, UniProt Q96LD8); format: functional;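 also: luminescence read-out of SENP8 inhibition, dose-response confirmation following an ultra-high-throughput screen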
T7 sequence (Q96LD8 whole entry): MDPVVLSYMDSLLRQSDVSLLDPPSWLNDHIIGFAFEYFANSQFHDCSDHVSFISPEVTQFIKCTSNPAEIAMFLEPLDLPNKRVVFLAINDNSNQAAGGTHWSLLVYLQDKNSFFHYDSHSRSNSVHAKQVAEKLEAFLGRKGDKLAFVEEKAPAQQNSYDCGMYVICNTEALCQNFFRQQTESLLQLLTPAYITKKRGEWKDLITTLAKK

In the case of `O=c1oc2ccc(Cl)cc2nc1/C=C(\O)c1cccs1`, the EC50 [1] is reported as 230 µM (active), the EC50 [2] is reported as 153 µM (active) and the IC50 [3] is reported as 2.2 µM (active).

With `COCC(C)n1c(C)cc(C(=O)Cn2nc(C(=O)O)c3ccccc3c2=O)c1C` (configuration not stated) the IC50 [3] was 11.4 µM (not active).

With `CN1CCN(C2=C(Cl)C(=O)N(c3cccc([N+](=O)[O-])c3)C2=O)CC1` the IC50 [4] was > 100 µM (not active), the IC50 (Bcl-2-related protein A1 [5]) was 3.94 µM (active) and the IC50 (Bcl-2-related protein A1 [6]) was 6.79 µM (active).

In the case of `COc1cccc(NC(=O)/C=C\c2ccc(Cl)cc2)c1`, the AC50 (Cytochrome P450 2C19) is reported as 3.98 µM (inconclusive).

In the case of `CCn1c(SCC(=O)Nc2ccc(Cl)cc2)nnc1C1CC1`, the IC50 [7] is reported as > 93.1 µM (not active), the IC50 [8] is reported as 35.9 µM (inactive) and the IC50 (Steroidogenic factor 1) is reported as 6.13 µM (active). The IC50 [9] was 35.9 µM (inactive).

For `C/C(=N\Cc1ccco1)c1c(C)nn(-c2nc3ccccc3s2)c1O`, the IC50 [7] was > 93.1 µM (not active), the IC50 (Caspase-3) was 3.72 µM (active) and the IC50 [10] was 3.48 µM (active). The IC50 [11] was 9.47 µM (active) and the IC50 [12] was 11.5 µM (active).
